# Experimental data as given in patent EP4755386A1, “SKIN PERMEATION PROMOTER AND SKIN PERMEATION PROMOTION METHOD” (Toyo Sugar Refining Co., Ltd., priority 2023, dated 2025).
# Settings: pH 7.4
# Protocol: As a bioactive substance, flavone (manufactured by Tokyo Chemical Industry Co., Ltd., NO. H0721) was used.
# Any substance in the substance group A and a bioactive substance were added to 10 mL of distilled water and mixed to prepare a solution (or suspension), which was used as a test liquid. The substance in the substance group A was added in an amount such that the concentration in the test liquid was 10 mg/mL. The bioactive substance was added in an amount such that the concentration in the test liquid was 250 µg/mL. As a control, a test liquid (flavone only) to which a substance in the substance group A was not added was also prepared.
# A receptor part of a Franz-type vertical diffusion cell was filled with a phosphate buffer (pH 7.4) containing 0.5% sodium taurocholate, and a Strat-M membrane for a transdermal diffusion test (manufactured by Merck) was attached as a permeable membrane. After 400 µL of the test liquid was dropped on the donor side, a receptor liquid was sampled over time. The amount of the bioactive substance in the sampled receptor liquid was quantified by high performance liquid chromatography. The experiment was performed with N = 1.
compound,measurement,value
"C[C@@H]1O[C@@H](O[C@H]2[C@H](Oc3cc(O)c4c(c3)O[C@H](c3ccc(O)cc3)CC4=O)O[C@H](CO)[C@@H](O)[C@@H]2O)[C@H](O)[C@H](O)[C@H]1O [naringin, Naringin]",skin permeation amount of flavone,hardly changed
